Tests used:
HFD mice = assay: Hair corticosteroid levels (LC-MS/MS) in HFD mice given dietary SC-26196; type: in vivo, WT C57BL/6J mice
Description: Six weeks-old male WT C57BL/6J mice were fed for 20 weeks a LFD (D12450B, Research Diets, NJ, USA) or a HFD (D12492, Research Diets, NJ, USA). In some experiments, WT C57BL/6J mice were fed for 8 weeks a HFD and for another 8 weeks a HFD supplemented with SC-26196 (Biorbyt Ltd). SC-26196 was mixed in the HFD at a concentration of 625 mg/kg of diet corresponding to approx. 100 mg/kg of animal weight. In other experiments WT mice were fed for 10 weeks a HFD and for another 10 weeks a HFD supplemented with icosapent ethyl (Vascepa). The content of Vascepa capsules was mixed by Research Diets with the diet at a concentration of 1.125 g/kg icosapent ethyl (corresponding to approx. 180 mg/kg of animal weight). Mice were weighed every week. Glucose and insulin tolerance tests were performed as previously described (20, 21). Three to five mg of hair (2-3 mm close to the skin on the back of the mice) were cut while gently holding the mice without anaesthesia.
Corticosterone and 11-dehydrocorticosterone in hair were extracted with methanol as described elsewhere. In brief, hair (3-5 mg) was washed by addition of 2.5 mL isopropanol. After 3 minutes the isopropanol was decanted and hair samples were dried in a fume hood. After drying, hair samples were extracted in 1.8 mL methanol that contained the internal standard mixtures for 18 h at room temperature. Finally, the methanolic extract was dried down, followed by reconstitution in respective mobile phase and analysis by LC-MS/MS as previously described with minor modifications. […] Corticosterone and 11-dehydrocorticosterone were detected by using the multi reaction monitoring scan mode with respective quantifier ions of 347.1->329.2 and 345.1->121.1, and qualifier ions of 347.1->90.9 and 345.1->242.3. […] Quantification of steroid hormones was achieved by comparisons of ratios of analyte peak areas to internal standard peak areas observed in samples to those in calibrators. Measured steroid concentrations were normalized to sample weights.

NCI-H295R cells = assay: Cholesterol and cholesteryl ester content (LC-MS/MS) of mitochondrial and lipid droplet fractions of NCI-H295R cells treated with SC-26196; type: cell-based, Human
Description: NCI-H295R cells (obtained from ATCC Cat# CRL-2128) were maintained in DMEM/F12 medium supplemented with 2.5 % Nu-Serum type I (Corning), 1 % Insulin Transferrin Selenium (ITS; Gibco), 50 U/mL penicillin and 50 µg/mL streptomycin. They were treated for 18 h with 10 µM SC-26196 or DMSO. […]
Cells were trypsinized and pelleted by centrifugation (500xg, 5 min, 4 °C). The cells were gently resuspended in homogenization buffer (200 mM mannitol, 50 mM sucrose, 10 mM KCI, […] 25 mM HEPES, pH 7.4, 1 µM aprotinin, 10 µM leupeptin, 20 µM PMSF) and homogenized on ice with 20 strokes of tight Dounce homogenizer. The samples were then centrifuged (800xg, 10 min, 4 °C) to pellet the nuclei. […]
Fractions 10-12 (SDHB-positive) and 4-5 (HSL-positive) were considered as mitochondrial and lipid droplet fractions, respectively. Protein concentration was measured in the mitochondrial and lipid droplet pools with the BCA Protein Assay Kit (Thermo Fisher) and fractions were analyzed for cholesterol and CE concentrations.
For quantification of cholesterol and cholesteryl esters, equal volumes of mitochondria fractions (180 µL) were combined, cholesterol-2,3,4-^13C (5 nmol, […]) and SPLASH®Lipidomix® (3 µL, Avanti Polar Lipids Inc) spiked, and samples incubated for 15 min on ice. […]

[1] = 6 weeks after SC-26196 treatment start, HFD containing 0.625 g/kg SC-26196 vs control, n=8-10

N#CC(CCCN1CCN(/N=C/c2cccnc2)CC1)(c1ccccc1)c1ccccc1 [SC-26196]
levels of 11-dehydrocorticosterone in newly-grown hair (HFD mice; 3 weeks after SC-26196 treatment start, HFD containing 0.625 g/kg SC-26196 (approx. 100 mg/kg of animal weight) vs control): reduced | 11-dehydrocorticosterone levels in the hair (HFD mice; [1]): reduced | corticosterone levels in the hair (HFD mice; [1]): reduced | mitochondrial cholesterol levels upon forskolin stimulation (NCI-H295R cells; SC-26196 18 h vs DMSO, forskolin (FSK, 1 µM) for 30 min, SDHB positive fractions): strong increase in mitochondrial cholesterol levels in control- but not SC-26196-treated cells | cholesterol and CE in the lipid droplet (HSL positive) fractions (NCI-H295R cells; SC-26196-treated cells): accumulated

— patent publication EP4458352A1, “EICOSAPENTAENOIC ACID ESTER DERIVATIVES FOR THE TREATMENT OF OBESITY” (Technische Universität Dresden, priority 2023, dated 2024)
